Experimental data from US20220323406A1, “METHODS AND COMPOSITIONS FOR DIFFERENTIATING STEM CELLS” (Massachusetts Institute of Technology, priority 2019, published 2022).

How the values were obtained:
Conditions in all cases: primary screen
[1] = system: ENR+CD organoids (ISC to Paneth cell differentiation); test: Primary screen: basal (non-stimulated) lysozyme secretion LYZ.NS, 2.5-D 384-well ENR+CD organoid differentiation; format: cell-based, mouse
From the text: (§1) High-throughput screening.

ENR+CD organoids = test: Primary screen: ATP (CellTiter-Glo 3D, CTG) cell number/viability, 2.5-D 384-well ENR+CD organoids;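 further: compounds given at plating and again on day 3 over a 6-day differentiation from ENR+CV stem-cell-enriched precursors, ATP measured on day 6, plate median as control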
[2] = system: ENR+CD organoids (ISC to Paneth cell differentiation); test: Primary screen: CCh-stimulated lysozyme secretion LYZ.S, 2.5-D 384-well ENR+CD organoid differentiation; format: cell-based, mouse
From the text: as §1

| Compound | Dose.FC.LYZ.NS ([1]; dose 0.08 uM) | Z.LYZ.NS (standard z score) ([1]; dose 0.08 uM) | Dose.FC.LYZ.NS ([1]; dose 0.40 uM) | Z.LYZ.NS (standard z score) ([1]; dose 0.40 uM) | Dose.FC.LYZ.NS ([1]; dose 2.00 uM) | Z.LYZ.NS (standard z score) ([1]; dose 2.00 uM) | Dose.FC.LYZ.NS ([1]; dose 10.00 uM) | Z.LYZ.NS (standard z score) ([1]; dose 10.00 uM) | Dose.FC.CTG (ENR+CD organoids; dose 0.08 uM) | Z.CTG (standard z score) (ENR+CD organoids; dose 0.08 uM) | Dose.FC.CTG (ENR+CD organoids; dose 0.40 uM) | Z.CTG (standard z score) (ENR+CD organoids; dose 0.40 uM) | Dose.FC.CTG (ENR+CD organoids; dose 2.00 uM) | Z.CTG (standard z score) (ENR+CD organoids; dose 2.00 uM) | Dose.FC.CTG (ENR+CD organoids; dose 10.00 uM) | Z.CTG (standard z score) (ENR+CD organoids; dose 10.00 uM) | Dose.FC.LYZ.S ([2]; dose 0.08 uM) | Dose.FC.LYZ.S ([2]; dose 0.40 uM) | Dose.FC.LYZ.S ([2]; dose 2.00 uM) | Dose.FC.LYZ.S ([2]; dose 10.00 uM) |
| --- | --- | --- | --- | --- | --- | --- | --- | --- | --- | --- | --- | --- | --- | --- | --- | --- | --- | --- | --- | --- |
| CCC(=O)Nc1cccc(Oc2nc(Nc3ccc(N4CCN(C)CC4)cc3OC)ncc2Cl)c1 [WZ4003] | 0.074 log2 fold change | 0.644 | −0.041 log2 fold change | −0.359 | −0.017 log2 fold change | −0.151 | −0.098 log2 fold change | −0.850 | 0.375 log2 fold change | 0.896 | 0.173 log2 fold change | 0.413 | 0.076 log2 fold change | 0.180 | −0.018 log2 fold change | −0.043 | 0.117 log2 fold change | −0.034 log2 fold change | −0.035 log2 fold change | −0.142 log2 fold change |
| Cc1cc(-c2ccc(CC(=O)Nc3ccc(-c4cccnc4)cc3)cc2)ccn1 [Wnt-C59 (C59)] | −0.163 log2 fold change | −1.424 | −0.182 log2 fold change | −1.588 | −0.198 log2 fold change | −1.724 | −0.191 log2 fold change | −1.666 | −0.572 log2 fold change | −1.366 | −0.611 log2 fold change | −1.461 | −0.627 log2 fold change | −1.498 | −0.613 log2 fold change | −1.465 | −0.242 log2 fold change | −0.281 log2 fold change | −0.313 log2 fold change | −0.301 log2 fold change |
| Oc1nc(-c2ccc(C(F)(F)F)cc2)nc2c1CSCC2 [XAV-939] | 0.058 log2 fold change | 0.505 | 0.020 log2 fold change | 0.177 | −0.044 log2 fold change | −0.386 | −0.131 log2 fold change | −1.142 | −0.332 log2 fold change | – | −0.027 log2 fold change | – | −0.355 log2 fold change | – | −0.899 log2 fold change | – | 0.074 log2 fold change | 0.085 log2 fold change | −0.068 log2 fold change | −0.231 log2 fold change |
| CC(C)OC(=O)C1=CN(C(=O)c2ccc(F)c(F)c2)CC(C)(C)c2c1[nH]c1ccccc21 [XL335] | 0.175 log2 fold change | 1.523 | −0.082 log2 fold change | −0.711 | −0.072 log2 fold change | −0.625 | −0.135 log2 fold change | −1.176 | 0.124 log2 fold change | – | −0.258 log2 fold change | – | −0.259 log2 fold change | – | −0.156 log2 fold change | – | 0.093 log2 fold change | −0.109 log2 fold change | 0.045 log2 fold change | −0.180 log2 fold change |
